Results taken from PMC3626541, “A first in human, safety, pharmacokinetics, and clinical activity phase I study of once weekly administration of the Hsp90 inhibitor ganetespib (STA-9090) in patients with solid malignancies” (BMC Cancer, 2013).
Entries after “also recorded” stand apart in the source; their conditions may differ.

Columns and labels:
HSP70 protein in plasma = HSP70 protein in plasma by ELISA; type: in vivo, human; conditions: for Peak circulating plasma HSP70 level: NSCLC patient, 150 mg/m^2
Description: Pre-dose blood samples on Days 1, 8 and 15 of Cycle 1 and 2 were collected for assessment of HSP70 protein in plasma by ELISA. Assays were performed using high sensitivity HSP70 ELISA kits (Assay Design, Ann Arbor, Michigan), with a sensitivity limit as low as 90 pg/ml, according to manufacturers’ instructions. Results were detected using a microplate ELISA reader at 450 nm with a correction wavelength of 540 nm. Concentrations of HSP70 were normalized to the total protein in each plasma sample.

[1] = Plasma pharmacokinetics (HPLC-MS/MS, non-compartmental); type: in vivo, human
Description: Blood samples were taken for ganetespib plasma concentration determination on Days 1 and 15 of Cycle 1 pre-dose, 0.5, 1, 1.5, 2, 4, 6, 8 and 24 h after infusion initiation. Samples were also drawn pre-dose and at 1 h, on Day 8 of Cycle 1 and Days 1, 8 and 15 of subsequent cycles. Plasma was separated and stored at a −70°C until analysis. Analyses were performed by a validated HPLC-MS/MS method under GLP conditions at Synta Pharmaceuticals Corp. Calibration curve coefficients of determination (r^2) ranged from 0.9897 to 0.9992. Back-calibrated calibration standards were in good agreement with QC samples with bias ≤ ± 3%, and calibration-curve r^2 variation was ≤ ± 6.5% across a concentration range of 0.100 through 100 ng/ml.
Pharmacokinetic parameters were computed non-compartmentally using standard methods within a validated installation of WinNonlin (v4.1, Pharsight Corporation, St. Louis, MO). Parameters included the maximum concentration (Cmax), area under the plasma concentration versus time curve (AUC), time of maximum concentration (Tmax), and terminal elimination half-life (t1/2).

[2] = system: patients with advanced solid tumors; test: Dose escalation: dose-limiting toxicity, MTD and RP2D; type: in vivo, human
Description: Ganetespib was administered over a 1-hour infusion, once weekly for 3 weeks of a 4-week cycle. Intra-patient dose escalation was allowed to dose levels shown to be safe and tolerable. The starting dose (7 mg/m^2) was selected based on a conservative estimate using the highest non-severely toxic dose established in a once-weekly, 4-week repeat dose study in cynomolgus monkeys. […] Each cohort consisted of 3 patients, with expansion to 6 patients if 1 of the 3 initial patients experienced a DLT, which was defined as: Grade 4 thrombocytopenia (or Grade 3 with hemorrhage); Grade 4 neutropenia lasting > 7 days (or Grade 3 with fever); Grade 4 anemia; ≥ Grade 3 non-hematologic toxicity (except alopecia); and ≥ Grade 3 hypersensitivity despite premedication. Doses were escalated after all patients in the preceding dose cohort had completed Cycle 1. […] The RP2D was defined as the dose of ganetespib below which 2 of 3 or 2 of 6 patients experienced a DLT.

[3] = system: patients with advanced solid tumors; set-up: method as in unpublished observation; conditions: over 400 patients treated in other studies; ref unpublished observation; cited from earlier work
advanced solid tumors = test: Tumor response (RECIST v1.0); type: in vivo, human; conditions: for Disease control rate (≥ 8 weeks): complete and partial responses, and stable disease ≥ 8 weeks; for Disease control rate (≥ 16 weeks): complete and partial responses, and stable disease ≥ 16 weeks; for Best response: Complete response / Best response: Non-evaluable / Best response: Partial response / Best response: Progressive disease / Best response: Stable disease: investigator-evaluated
Description: Patients’ demographics and medical history were recorded at baseline. Physical examination and PS were assessed at baseline and on Day 1 of each cycle. Adverse events (AEs), vital signs, hematology and chemistry values, and creatinine clearance were assessed at baseline and weekly during treatment. Toxicity was graded using National Cancer Institute Common Terminology Criteria for Adverse Events (NCI CTCAE), version 3.0. An electrocardiogram (ECG) was performed at baseline, before and after treatment on Days 1 and 15 of Cycles 1 and 2, and on Day 15 of even-numbered cycles thereafter. CT scans were done at baseline and every 8 weeks thereafter. Tumor response was assessed using Response Evaluation Criteria in Solid Tumors (RECIST, v1.0), with confirmation of responses performed at least 4 weeks later.

[4] = 1-hour IV infusion, across doses
[5] = one NSCLC patient, 150 mg/m^2, BRAF G469A mutation

For `CC(C)c1cc(-c2n[nH]c(=O)n2-c2ccc3c(ccn3C)c2)c(O)cc1O` [Ganetespib, 5-[2,4-dihydroxy-5-(1 methyl-ethyl)phenyl]-2,4 dihydro-4-(1-methyl-1H indol-5 yl)-3H-1,2,4 triazole-3-one], the “Peak circulating plasma HSP70 level” value (HSP70 protein in plasma; Cycle 1) was 750 ng/g, the “Peak circulating plasma HSP70 level” value (HSP70 protein in plasma; Cycle 2) was 730 ng/g and the “Hsp70 plasma protein levels versus baseline” value (HSP70 protein in plasma; Days 8 and 15, pre-dose, majority of patients) was “significantly elevated”. The “Dose levels at which Hsp70 induction saturates” value (HSP70 protein in plasma; mean maximum increase of HSP70 in Cycle 1) was “above 180 mg/m^2”, the “Persistence of elevated HSP70 protein plasma levels following drug exposure” value (HSP70 protein in plasma; post treatment) was “over a week; also recorded: at least a week” and the “Tmax occurrence at the time of the 0.5 h sample” value ([1]; 1-hour IV infusion) was 39 % of drug administrations. For the same compound, the “Mean steady state volume of distribution (Vss)” value [1, 4] was 107 ± 98 L/m^2, the Plasma drug clearance [1, 4] was 28.55 ± 9.33 L/h/m^2 and the Tmax ([1]; human, plasma, 1-hour IV infusion) was 0.79 h. For the same compound, the Vd ([1]; human, plasma, 1-hour IV infusion, across doses, read-out: Mean steady state volume of distribution (Vss)) was 196 ± 172 L, the clearance ([1]; human, plasma, 1-hour IV infusion, across doses, read-out: Plasma drug clearance (converted)) was 877 mL/min and the half-life ([1]; human, plasma, 1-hour IV infusion, across doses, read-out: Terminal t1/2 (mean ± SD) (converted)) was ~7.54 h. For the same compound, the Drug accumulation ([1]; once-weekly doses, Day 1 vs Day 15) was “no apparent drug accumulation”, the “Coefficient of variation for clearance” value ([1]; overall variability in exposure) was 33.8% and the “Plasma concentration as % of Cmax” value ([1]; within 8 to 10 h) was ~1 % of Cmax. For the same compound, the “Plasma concentration as % of Cmax” value ([1]; within 1 h of infusion termination) was “approximately 10 % of Cmax”, the “DLT: Grade 3 elevated serum amylase” value ([2]; 150 mg/m^2 dose level) was “one Grade 3 amylase elevation; also recorded: one patient” and the “DLT: Grade 3 and 4 asthenia” value ([2]; 259 mg/m^2 dose level) was “one Grade 3 and one Grade 4 asthenia; also recorded: two patients”. The “DLT: Grade 3 diarrhea” value ([2]; 259 mg/m^2 dose level, expanded to 6 patients) was “one Grade 3 diarrhea; also recorded: one additional patient”, the “Patients experiencing DLT” value ([2]; 7–114 mg/m^2 cohort) was “None of the patients” and the “Maximum tolerated dose (MTD)” value ([2]; 1 hour IV infusion once weekly for 3 weeks of a 4-week cycle) was 216 mg/m^2. The “Recommended phase II dose (RP2D)” value ([2]; human, in vivo, iv, 4 weeks) was 200 mg/m^2, the “Grade 3 fatigue (would have been dose-limiting in dose-escalation phase)” value ([2]; in vivo) was “One patient” and the “Incidence of treatment related visual changes” value [3] was < 3%. For the same compound, the “Disease control rate (≥ 8 weeks)” value (advanced solid tumors; 259 mg/m^2, n = 6) was 2 (33.3) n (%), the “Disease control rate (≥ 16 weeks)” value (advanced solid tumors; 259 mg/m^2, n = 6) was 2 (33.3) n (%) and the “Best response: Complete response” value (advanced solid tumors; 259 mg/m^2, n = 6) was 0 n (%). For the same compound, the “Best response: Non-evaluable” value (advanced solid tumors; 259 mg/m^2, n = 6) was 1 (16.7) n (%), the “Best response: Partial response” value (advanced solid tumors; 259 mg/m^2, n = 6) was 0 n (%) and the “Best response: Progressive disease” value (advanced solid tumors; 259 mg/m^2, n = 6) was 3 (50) n (%). For the same compound, the “Best response: Stable disease” value (advanced solid tumors; 259 mg/m^2, n = 6) was 2 (33.3) n (%), the “Disease control rate (≥ 8 weeks)” value (advanced solid tumors; 7-114 mg/m^2, n = 25) was 11 (44) n (%) and the “Disease control rate (≥ 16 weeks)” value (advanced solid tumors; 7-114 mg/m^2, n = 25) was 5 (20) n (%). The “Best response: Complete response” value (advanced solid tumors; 7-114 mg/m^2, n = 25) was 0 n (%), the “Best response: Non-evaluable” value (advanced solid tumors; 7-114 mg/m^2, n = 25) was 4 (16) n (%) and the “Best response: Partial response” value (advanced solid tumors; 7-114 mg/m^2, n = 25) was 1 (4) n (%). For the same compound, the “Best response: Progressive disease” value (advanced solid tumors; 7-114 mg/m^2, n = 25) was 10 (40) n (%), the “Best response: Stable disease” value (advanced solid tumors; 7-114 mg/m^2, n = 25) was 10 (40) n (%) and the “Patients with SD for at least 8 weeks” value (advanced solid tumors; 10 patients with NSCLC) was 60%. The “Duration of SD (range)” value (advanced solid tumors; 23 patients with SD) was 46 to 563 days, the “Disease control rate (≥ 8 weeks)” value (advanced solid tumors; 150-216 mg/m^2, n = 22) was 11 (50) n (%) and the “Disease control rate (≥ 16 weeks)” value (advanced solid tumors; 150-216 mg/m^2, n = 22) was 6 (27.3) n (%). For the same compound, the “Best response: Complete response” value (advanced solid tumors; 150-216 mg/m^2, n = 22) was 0 n (%), the “Best response: Non-evaluable” value (advanced solid tumors; 150-216 mg/m^2, n = 22) was 6 (27.3) n (%) and the “Best response: Partial response” value (advanced solid tumors; 150-216 mg/m^2, n = 22) was 0 n (%). For the same compound, the “Best response: Progressive disease” value (advanced solid tumors; 150-216 mg/m^2, n = 22) was 5 (22.7) n (%), the “Best response: Stable disease” value (advanced solid tumors; 150-216 mg/m^2, n = 22) was 11 (50) n (%) and the “Disease control rate (≥ 8 weeks)” value (advanced solid tumors; Overall response, n = 53) was 24 (45.3) n (%). The “Disease control rate (≥ 16 weeks)” value (advanced solid tumors; Overall response, n = 53) was 13 (24.5) n (%), the “Best response: Complete response” value (advanced solid tumors; Overall response, n = 53) was 0 n (%) and the “Best response: Non-evaluable” value (advanced solid tumors; Overall response, n = 53) was 11 (20.8) n (%). For the same compound, the “Best response: Partial response” value (advanced solid tumors; Overall response, n = 53) was 1 (1.9) n (%), the “Best response: Progressive disease” value (advanced solid tumors; Overall response, n = 53) was 18 (34) n (%) and the “Best response: Stable disease” value (advanced solid tumors; Overall response, n = 53) was 23 (43.4) n (%). The “Disease control rate (PR and SD ≥ 16 weeks)” value (advanced solid tumors; all patients) was 24.5%, the “Patients with SD” value (advanced solid tumors; all patients) was 43.4% and the “Doses generally associated with disease stabilization” value (advanced solid tumors; heavily pre-treated patients with metastatic cancers) was “higher than 80 mg/m^2”. The “Patients with PR” value (advanced solid tumors; metastatic colorectal cancer) was “One patient”, the “Maximum reduction in target lesions” value (advanced solid tumors; [5]) was 26.5% and the Time on study (advanced solid tumors; [5]) was 13 months. For the same compound, the “Maximum reduction in target lesions” value (advanced solid tumors; one patient with metastatic GIST, 216 mg/m^2, PDGFRA^D842V exon 18 mutation) was 18% and the “Duration of disease stabilization” value (advanced solid tumors; one patient with neuroendocrine tumor, 259 mg/m^2) was “over 20 months”.
